Source: US20250179167A1, “IL-6 INHIBITOR AS TREATMENT FOR NEPHROPATHY” (YALE UNIVERSITY, priority 2022, published 2025)

Experiments:
diabetic CD-1 mice = assay: FA modulators (fenofibrate, etomoxir, C75, simvastatin) in diabetic CD-1 mice; assay type: in vivo, mouse; details: for CPT1a level / FAO, as measured by [14CO2] release / β-catenin level / fibrogenic phenotype / level of fibrosis / level of GR protein in CD31 positive cells: diabetic CD-1 mice; for fibrogenic phenotype / level of fibrosis / level of GR protein in CD31 positive cells: treated for 4 weeks; for fibronectin mRNA level / αSMA mRNA level: diabetic kidneys, CD-1 mice
Experimental: FIG. 33A-33F show endothelial GR is essential for the action of anti-dyslipidemic drugs in the diabetic kidney disease. (FIG. 33A) Masson trichrome (MTS) and Sirius red staining in kidneys of control, diabetic, fenofibrate-, etomoxir-, C75- and simvastatin-treated diabetic mice. Representative images (original magnification 300×) are shown. Relative area of fibrosis (%) and relative collagen deposition (%) were measured using the ImageJ program. n=6 biologically independent mice/group combined from two experiments were analyzed. Scale bar 50 μm. (FIG. 33B) Co-immunolabeling of GR/CD31 was analyzed by fluorescence microscopy. FITC-labeled GR, rhodamine-labeled CD31 and DAPI were used. Representative images are shown; original magnification 300×. Scale bar 50 μm. n=6 biologically independent mice/group combined from two experiments were analyzed. (FIG. 33C) PCR gene analiof fibronectin and α-SMA in the kidneys. 18S was used as an internal control. n=6 biologically independent mice/group. (FIG. 33D) Blood glucose measurements in control, diabetic, fenofibrate-, etomoxir-, C75- and simvastatin-treated diabetic mice. n=6 biologically independent mice/group. (FIG. 33E) Radiolabeled [^14C]palmitate oxidation and [^14CO2]release were measured. CPM of each sample was counted. Endothelial cells isolated from six biologically independent mice were evaluated. Three independent experiments were analyzed. Data are mean±SEM (FIG. 33F) Immunohistochemical analysis of CPT1a and β-catenin was analyzed in the kidneys of control, diabetic, fenofibrate-, C75-, etomoxir- and simvastatin-treated diabetic mice. n=6 biologically independent mice/group. Representative images are shown; original magnification 400×. Scale bar 50 μm. Data are mean SEM. In all panels, one-way Anova with Tukey multiple comparison post hoc test was used to calculate statistical significance. Significance—*p<0.05, **p<0.01, ***p<0.001. Con: control, DM: diabetic, feno: fenofibrate.
A single IP dose of 200 mg/kg STZ was used to induce diabetes in CD-1 mice.
In one experiment, male mice were randomized to one of 4 groups sixteen weeks after induction of diabetes: (i) untreated, (ii) fenofibrate (100 mg/kg), (iii) simvastatin (40 mg/kg), or (iv) Wnt inhibitor (LGK974; 5 mg/kg). In each case, mice were treated for 4 weeks and compared to untreated diabetic CD-1 mice. In another experiment, male diabetic CD-1 mice were randomized into one of 3 groups: (i) untreated (vehicle), (ii) etomoxir (20 mg/kg) or (iii) C75 (15 mg/kg); in each case mice were treated (IP) three times/week for a total 4 weeks.
Morphological Evaluation. A point-counting method was utilized to evaluate the relative area of the mesangial matrix. The inventors analyzed PAS-stained glomeruli from each mouse using a digital microscope screen grid containing 540 (27×20) points. Masson's trichrome-stained images were evaluated by ImageJ software, and the fibrotic areas were estimated.
Sirius red staining. Deparaffinized sections were incubated with picrosirius red solution for 1 hour at room temperature. The slides were washed twice with acetic acid solution for 30 seconds per wash. The slides were then dehydrated in absolute alcohol three times, cleared in xylene, and mounted with a synthetic resin. Sirius red staining was analyzed using ImageJ software, and fibrotic areas were quantified.
Immunohistochemistry. Paraffin-embedded kidney sections (5 μm thick) were deparaffinized and rehydrated (2 min in xylene, four times; 1 min in 100% ethanol, twice; 1 min in 95% ethanol; 45 s in 70% ethanol; and 1 min in distilled water), and the antigen was retrieved in a 10 mM citrate buffer pH 6 at 98° C. for 60 min. To block the endogenous peroxidase, all sections were incubated in 0.3% hydrogen peroxide for 10 min. The immunohistochemistry was performed using a Vectastain ABC Kit (Vector Laboratories, Burlingame, CA). Mouse anti-β-catenin antibody (1:100) and CPT1a (Abnova; H00001374-DO1P; 1:100) antibodies were used. […]

[1] = test system: control littermates and GR^ECKO mice; assay: Etomoxir and C75 in non-diabetic and diabetic control littermates and GR^ECKO mice; assay type: in vivo, mouse; details: for level of renal fibrosis: nondiabetic control and GR^ECKO mice
Experimental: FIGS. 6A-6E show metabolic reprogramming by loss of endothelial GR loss worsens diabetic kidney disease. (FIG. 6A) Radiolabeled ^14C-palmitate uptake analysis in isolated endothelial cells from kidneys of nondiabetic and diabetic control, GR^ECKO Apoe^−/− and DKO mice. CPM of each sample were counted. Data were normalized to μg protein. Fold activity is presented. Endothelial cells isolated and cultured from six biologically independent mice/group were performed in triplicate and analyzed for ^14C-palmitate uptake analysis. Data are mean±SEM. (FIG. 6B) Radiolabeled [^14C]palmitate oxidation and [^14CO2]release were measured in isolated endothelial cells from kidneys of nondiabetic and diabetic control, GR^ECKO Apoe^−/− and DKO mice. CPM of each sample was counted. Data were normalized to μg protein. Fold activity is presented. Endothelial cells isolated and cultured from six biologically independent mice/group were performed in triplicate and analyzed for ^14C-palmitate uptake analysis. Data are mean±SEM. (FIG. 6C) Body weight, blood glucose, and kidney weight/body weight were measured at the end of these experiments. N=6 biologically independent mice from two experiments. Ex vivo radiolabeled [^14C]palmitate oxidation and [^14CO2]release were measured in kidneys. CPM of each sample was counted. Isolated endothelial cells from five biologically independent mice/group were analyzed in triplicate. Data are mean±SEM. (FIG. 6D) Masson trichrome, Sirius red and PAS staining were analyzed in the kidneys of control, etomoxir- and C75-treated diabetic mice. Representative images are shown; original magnification 300×. Relative area of fibrosis (%) and relative collagen deposition (%) were measured using the ImageJ program. N=8 biologically independent mice per/group from three independent experiments were analyzed. Scale bar 50 μm. Data are mean±SEM. (FIG. 6E) Immunohistochemical analysis of CPT1a and β-catenin. Representative images are shown; original magnification 300×. Scale bar 50 μm. N=6 biologically independent mice per group from three independent experiments. For all panels one-way ANOVA with Tukey post-test was used for analysis of statistical significance. Significance—*p<0.05, **p<0.01, ***p<0.001.
Body weight, blood glucose, and kidney/body weight ratio and fatty acid oxidation as represented by [^14CO2]release are shown. [^14C]palmitate was used as substrate and CPM counts were normalized by protein. n=6 biologically independent mice/group. Data are mean±SEM. One-way Anova with Tukey multiple comparison post hoc test was used to calculate statistical significance. Significance—*p<0.05.
Masson trichrome staining (upper panel) and Sirius red (lower panels) in etomoxir- and C75-treated non-diabetic control and GR^ECKO mice. Etomoxir (20 mg/kg) and C75 (15 mg/kg) were dosed (IP) three times per week for 3 weeks in GR^ECKO and control littermates. Representative images are shown; original magnification 400×. Area of fibrosis (%) and relative collage deposition (%) in n=6 biologically independent mice/group were combined from two independent experiments. Scale bar 50 μm. Data are mean±SEM. One-way Anova with Tukey multiple comparison post hoc test was used to calculate statistical significance. Significance-**p<0.01.
Animal Experimentation. All experiments were performed according to a protocol approved by the Institutional Animal Care and Use Committee at the Yale University School of Medicine and were in accordance with the National Institute of Health (NIH) Guidelines for the Care of Laboratory Animals Mice were housed at an ambient temperature of 68-79° F. with a humidity that ranged between 30%-70%. They were exposed to 12-h light-dark cycles Mice lacking the endothelial glucocorticoid receptor (GR) (known as GR^ECKO) and those lacking this receptor on the Apoe null background (DKO) were generated as previously described^25; these mice were on the C57BL/6 background. […]

[2] = kidney ECs from diabetic GR^ECKO mice
[3] = kidney ECs, non-diabetic control littermates
[4] = kidneys of diabetic GR^ECKO mice
[5] = kidneys of diabetic control mice

| Structure (SMILES) | CPT1a level (diabetic CD-1 mice) | FAO, as measured by [14CO2] release (diabetic CD-1 mice) | β-catenin level (diabetic CD-1 mice) | fibrogenic phenotype / level of fibrosis (diabetic CD-1 mice) | level of GR protein in CD31 positive cells (diabetic CD-1 mice) | fibronectin mRNA level (diabetic CD-1 mice) | αSMA mRNA level (diabetic CD-1 mice) | expression of CPT1a (immunohistochemical analysis, FIG. 6E) ([1]; diabetic GR^ECKO mice) | expression of β-catenin (immunohistochemical analysis, FIG. 6E) ([1]; diabetic GR^ECKO mice) | expression of CPT1a (immunohistochemical analysis, FIG. 6E) ([1]; diabetic control mice) | expression of β-catenin (immunohistochemical analysis, FIG. 6E) ([1]; diabetic control mice) | FAO [1, 2] | FAO [1, 3] | CPT1a level [1, 4] | level of β-catenin [1, 4] | renal fibrogenic phenotype [1, 4] | CPT1a level [1, 5] | level of β-catenin [1, 5] | renal fibrogenic phenotype [1, 5] | level of renal fibrosis [1] |
| --- | --- | --- | --- | --- | --- | --- | --- | --- | --- | --- | --- | --- | --- | --- | --- | --- | --- | --- | --- | --- |
| C=C1C(=O)OC(CCCCCCCC)C1C(=O)O (stereo not shown) [C75] | increased the expression of CPT1a | increased the level of FAO | suppressed the level of β-catenin | ameliorated the fibrogenic phenotype | restored | downregulated | downregulated | A similar pattern was observed | A similar pattern was observed | substantially reverse | substantially reverse | unable to rescue | restored FAO | also observed in the GR^ECKO mice, though to a lesser extent | also observed in the GR^ECKO mice, though to a lesser extent | also observed in the GR^ECKO mice, though to a lesser extent | restored CPT1a | completely diminished the level of β-catenin | clearly abolished the renal fibrogenic phenotype | mitigated |
| CCOC(=O)[C@@]1(CCCCCCOc2ccc(Cl)cc2)CO1 [etomoxir] | significant suppression | significant suppression | induced the expression of β-catenin | exacerbated the fibrosis | suppressed it | upregulated | upregulated | A similar pattern was observed | A similar pattern was observed | decreased expression of CPT1a | increasing expression of β-catenin | significant suppression of FAO | significant suppression of FAO | suppressed the CPT1a level | increased the expression level of β-catenin | accelerated the renal fibrogenic phenotype | suppressed the CPT1a level | increased the expression level of β-catenin | accelerated the renal fibrogenic phenotype | slightly increased the level of renal fibrosis |
